# Experimental data: patent publication US11198850B2, “Method for manufacturing telencephalon or progenitor tissue thereof” (RIKEN, priority 2013, dated 2021)
# Tests used:
# [1] = test system: Human ES cells (KhES-1) aggregates; assay: Cortical hem formation in human ES cell aggregates with Wnt signal enhancer, immunohistostaining on day 42; assay type: cell-based; settings: 3 μM CHIR99021 alone, day 18 to day 42
# Procedure: Human ES cells (KhES-1; a fluorescence protein gene Venus is knocked-in a telencephalon specific gene Foxg1) were dispersed to single cells by a trypsin treatment, and according to the SFEBq method (Nakano et al, Cell Stem Cell, 2012), aggregates were formed and subjected to suspension aggregate culture at 37° C. in the presence of 5% CO2 for differentiation induction. The dispersed 9000 human ES cells were seeded in each well of a V bottom 96 well plate applied with a low cell adsorptive surface coating, and a growth factor-free G-MEM medium (Gibco/Invitrogen) added with 20% KSR (Knockout Serum Replacement), 0.1 mM non-essential amino acid solution (Gibco/Invitrogen), 1 mM sodium pyruvate solution (Sigma), and 0.1 mM 2-mercaptoethanol was used as the medium for differentiation induction. […] The aggregate was analyzed on day 1 and day 34 from the start of differentiation induction, and analyzed by immunohistostaining on day 42. […] The culture medium used for the culture from day 18 to day 42 was DMEM/F12 medium (Gibco/Invitrogen) added with 1% N2 supplement (Gibco/Invitrogen), 1% lipid concentrate (Chemically defined lipid concentrate, Gibco/Invitrogen), 10% FBS, 5 μg/ml heparin, 3 μM GSK-3β inhibitor CHIR99021 (Wnt signal enhancer) and the aggregates were analyzed by immunohistostaining on day 42.
# [2] = test system: hESC-derived cortical neuroepithelium; assay: Notch signal inhibition in hESC-derived cortical neuroepithelium, neural stem cell/progenitor and neuron markers; assay type: cell-based, human; settings: 10 μM DAPT, days 70-77
# Source text: (A-C) Immunostaining of Pax6 and Sox2 in apical and basal (SVZ) neural stem cells/progenitors within the hESC-derived cortical neuroepithelium on day 91. The majority of Sox2 positive cells express Pax6 (C). (D-F) Effects of Notch signal inhibition on the expression of neural stem cells/progenitor and neuron markers in cortical neuroepithelium. […] An increase of cortical neuroepithelium thickness also observed after the treatment (F). ***P<0.001, Student t tests between with DAPT (n=6) and without DAPT (n=5) treatment. (G) Schematic of oRG neural stem cells/progenitors in the human fetal outer SVZ. (H and H′) Phospho-vimentin+ neural stem cells/progenitors in the SVZ expressed Sox2. (I) Phospho-vimentin+ neural stem cells/progenitors in the SVZ with a long […] process extending toward the pial surface. (J) Phospho-vimentin+ SVZ neural stem cells/progenitors with a basal process carried a pericentin+ centrosome in the neurons. During mitosis, two pericentin+ centrioles were found for dividing cells. […] (Scale bars, 100 μm in A-E; 25 μm in H-K.)
# Cortical neuroepithelium induced from hESCs were subjected to culture under the following conditions. On day 18, the cell aggregates were transferred to a 9-cm Petri dish (non-cell adhesive surface coat) and further cultured in DMEM/F12 medium (Gibco/Invitrogen) supplemented with 1% N2 supplement (Gibco/Invitrogen), 1% lipid concentrate (Chemically Defined Lipid Concentrate, Gibco/Invitrogen), 0.25 mg/mL Fungizone, 100 U/mL penicillin, and 100 μg/mL streptomycin at 37° C. in the presence of 5% CO2 and 40% O2. From day 35, 10% FBS, 5 μg/mL heparin, and 1% Matrigel growth factor-reduced (BD Biosciences) were also added to the medium. To prevent cell death in the central portions of cell aggregates, the aggregates were cut into half-size with fine forceps under a dissecting microscope every 2 wk after day 35 and were cultured using a lumox culture dish (SARSTEDT; O2 penetrating) after day 56. From day 70, the concentration of Matrigel was increased (final 2%) and B27 supplement (Gibco/Invitrogen) was added to the medium.
# [3] = test system: Human ES cells (KhES-1) aggregates; assay: Induction of basal ganglia progenitor tissue (LGE/MGE) in human ES cell aggregates by Shh signal agonist, immunohistostaining on day 35; assay type: cell-based
# Procedure: Human ES cells (KhES-1; a fluorescence protein gene Venus is knocked-in a telencephalon specific gene Foxg1) were dispersed to single cells by a trypsin treatment, and according to the SFEBq method (Nakano et al, Cell Stem Cell, 2012), aggregates were formed and subjected to suspension aggregate culture at 37° C. in the presence of 5% CO2 for differentiation induction. The dispersed 9000 human ES cells were seeded in each well of a V bottom 96 well plate applied with a low cell adsorptive surface coating, and a growth factor-free G-MEM medium (Gibco/Invitrogen) added with 20% KSR (Knockout Serum Replacement), 0.1 mM non-essential amino acid solution (Gibco/Invitrogen), 1 mM sodium pyruvate solution (Sigma), and 0.1 mM 2-mercaptoethanol was used as the medium for differentiation induction. To suppress dispersion-induced cell death, 20 μM of a ROCK inhibitor Y-27632 was added for the first 3 days of differentiation induction, and the concentration thereof was reduced to half for the next 3 days. From day 0 to day 18 after the start of the differentiation induction, Wnt signal inhibitor IWR-1-end (3 μM) and TGFβ signal inhibitor SB431542 (5 μM) were added and allowed to react. On day 18 from the start of differentiation induction, these aggregates were transferred to a 9 cm petri dish applied with low cell-adhesive surface coating, and suspension culture was performed at 37° C., in the presence of 5% CO2, 40% O2. From day 18 to day 35, DMEM/F12 medium (Gibco/Invitrogen) added with 1% N2 supplement (Gibco/Invitrogen), and 1% lipid concentrate (Chemically defined lipid concentrate, Gibco/Invitrogen) was used. From day 35, the medium further added with 10% FBS, 5 μg/ml heparin, and 1% Matrigel growth factor reduced (BD Bioscience) was used. The aggregate was analyzed on day 1 and day 34 from the start of differentiation induction, and analyzed by immunohistostaining on day 42.
# Up to day 35 of differentiation induction, cells were cultured under culture conditions similar to those of Example 1. That is, human ES cell aggregates were cultured in a V bottom 96 well plate up to 18 days after differentiation induction, suspended aggregates were transferred to a non-cell adhesive petri dish (diameter […]), and suspension culture was performed at 37° C. in the presence of 5% CO2, 40% O2 from day 18 to day 35 of differentiation induction. However, Sonic hedgehog (Shh) signal agonist SAG was added to the culture medium of Example 1 at a final concentration of 30 nM or 500 nM only in the period of from day 15 to day 21 and allowed to react. The aggregate was analyzed by immunohistostaining on day 35.
# Up to day 35 of differentiation induction, cells were cultured under culture conditions similar to those of Example 2. That is, human ES cell aggregates were cultured in a V bottom 96 well plate up to 18 days after differentiation induction, suspended aggregates were transferred to a non-cell adhesive petri dish (diameter 9 cm), and suspension culture was performed at 37° C. in the presence of 5% CO2, 40% O2, from day 18 to day 35 of differentiation induction. However, Shh signal agonist SAG was added to the culture medium at a concentration of 30 nM only in the period of from day 15 to day 21 of differentiation induction. The aggregate was analyzed by immunohistostaining on day 35.
# Ventralization of cortical neuroepithelium was performed by adding hedgehog agonist SAG (30 nM or 500 nM) during culture days 15-21. The cell aggregates were fixed on culture day 35.
# [4] = test system: hESC-derived cortical neuroepithelium; assay: Rolling morphogenesis of hESC-derived cortical neuroepithelium with ROCK inhibitor; assay type: cell-based, human; settings: P<0.001 vs control, Fisher's exact test, dihydrochloride
# Source text: (A-I) Asymmetric progression of rounding morphogenesis of hESC-derived cortical neuroepithelium. Arrows indicate boundary of a cortical neuroepithelium domain in A and rolling epithelium in B-D. Arrowheads indicate rolling epithelium in E. Arrows indicate rounding movements of the neuroepithelium in F-I. (J-L) Effect of the ROCK inhibitor Y-27632 on the rolling of cortical neuroepithelium. […] Treatment group, n=187 neuroepithelium domains; control group, n=130. (M and N) The rolling shape was preferentially observed on the side with strong expression of Otx2 and Coup-TF1 (dorsal and caudal markers). (O-Q) Adjacent formation of neuroepithelium structures of cortex (Pax6+) and LGE (Gsh2+; with GAD65^+ GABAergic neurons underneath) on day 35. The cortical side contacting the LGE domain was opposite to the side with strong rolling (arrow). (R) Interkinetic nuclear migration in the hESC-derived cortical neuroepithelium on day 24 (two-photon imaging). Visualized with partial mixing of pax6::venus reporter hESCs with nonlabeled hESCs. Two daughter cells with both apical and basal processes were generated from an apically dividing progenitor. (Scale bars, 200 μm in A; 100 μm in B-H and J-N; 200 μm in O-Q.) Nuclear counter staining (blue), DAPI.
# [5] = 30 nM SAG, day 15 to day 21, analysed day 35
compound,measurement,setting,value
"Cc1cnc(-c2cnc(NCCNc3ccc(C#N)cn3)nc2-c2ccc(Cl)cc2Cl)[nH]1 [CHIR99021, 6-[[2-[[4-(2,4-Dichlorophenyl)-5-(5-methyl-1H-imidazol-2-yl)-2-pyrimidinyl]amino]ethyl]amino]-3-pyridinecarbonitrile]",aggregates with selective formation of cortical hem,[1],not less than 80%
C[C@H](NC(=O)Cc1cc(F)cc(F)c1)C(=O)N[C@H](C(=O)OC(C)(C)C)c1ccccc1 [DAPT],Satb2+ neurons,[2],increased
same,Sox2+ Tbr2− cells after the treatment,[2],rarely remained
same,Sox2− Tbr2+ intermediate neural stem cells/progenitors,[2],increased
same,cortical neuroepithelium thickness,[2]; P<0.001,increase
CNC1CCC(N(Cc2cccc(-c3ccncc3)c2)C(=O)c2sc3ccccc3c2Cl)CC1 (stereo not shown) [SAG],Gsh2 (LGE marker) expression in foxg1::Venus-expressing neural epithelium,[3]; 30 nM SAG for days 15-21,a substantial portion of foxg1::Venus-expressing neural epithelium expressed Gsh2
same,aggregates with Gsh2 positive LGE neuroepithelium,[3]; [5],not less than 70%
same,aggregates with continuous self-formation of cerebral cortex and basal ganglion in one aggregate,[3]; [5],not less than 50%
same,percentage of Gsh2+ neuroepithelium in Foxg1+ telencephalic neuroepithelium,"[3]; 30 nM SAG, days 15-21",increased
same,percentage of Pax6+ neuroepithelium in Foxg1+ telencephalic neuroepithelium,"[3]; 30 nM SAG, days 15-21",partially suppressed
same,aggregates with Foxg1::venus positive and Nkx2.1 positive MGE neuroepithelium,"[3]; 500 nM SAG, day 15 to day 21, analysed day 35",not less than 80%
same,Nkx2.1+ neuroepithelium as share of Foxg1+ telencephalic NE,"[3]; 500 nM SAG, days 15-21",40-50%
same,expression of both Pax6 and Gsh2,"[3]; 500 nM SAG, days 15-21",efficiently suppressed
same,MGE marker Nkx2.1 expression,"[3]; high concentrations of SAG (500 nM), days 15-21",induced the MGE marker Nkx2.1 at the cost of Pax6 and Gsh2 expression
"C[C@@H](N)[C@H]1CC[C@H](C(=O)Nc2ccncc2)CC1.Cl.Cl [Y-27632, (+)-(R)-trans-4-(1-aminoethyl)-N-(4-pyridyl)cyclohexanecarboxamide dihydrochloride]",rolling morphogenesis of cortical neuroepithelium,[4],Attenuation of rolling morphogenesis
same,rolling morphogenesis of cortical neuroepithelium,[4]; listed as ROCK inhibitor,attenuated
